Read-outs that look alike come from different tables or passages of the source. Marks after values point to notes of the source that are not given here.
Method: The vial was placed in a first 3 mL low density polyethylene (LDPE) bag with a 1/6 desiccant and the bag was twist tie closed. The first bag was placed in a second 3 mL LDPE bag, twist tie closed, and placed in a high density polyethylene (HDPE) container.

In the case of `CC[n+]1ccccc1-c1c2nc(c(-c3cccc[n+]3CC)c3ccc([n-]3)c(-c3cccc[n+]3CC)c3nc(c(-c4cccc[n+]4CC)c4ccc1[n-]4)C=C3)C=C2.[Cl-].[Cl-].[Cl-].[Cl-].[Cl-].[Mn+3]` [BMX-010], the Appearance (25° C./60% RH, 3 Month) is reported as “Brown Solid”, the “Assay by UPLC (Wt % of an anhydrous basis, sum of Atropisomers)” value (25° C./60% RH, 3 Month) is reported as 100.3% and the “PSD D10” value (25° C./60% RH, 3 Month) is reported as “D10: 0.60 μm”. The “PSD D50” value (25° C./60% RH, 3 Month) was “D50: 1.1 μm”, the “PSD D90” value (25° C./60% RH, 3 Month) was “D90: 2.0 μm” and the “Total Impurities by HPLC (Area %)” value (25° C./60% RH, 3 Month) was 0.81%. The “Water Content by Karl Fischer” value (25° C./60% RH, 3 Month) was 7.3%, the Appearance (25° C./60% RH, 6 Month) was “Brown Solid” and the “Assay by UPLC (Wt % of an anhydrous basis, sum of Atropisomers)” value (25° C./60% RH, 6 Month) was 99.9%. For the same compound, the “PSD D10” value (25° C./60% RH, 6 Month) was “D10: 0.62 μm*”, the “PSD D50” value (25° C./60% RH, 6 Month) was “D50: 1.2 μm*” and the “PSD D90” value (25° C./60% RH, 6 Month) was “D90: 2.0 μm*”. For the same compound, the “Total Impurities by HPLC (Area %)” value (25° C./60% RH, 6 Month) was 0.88%, the “Water Content by Karl Fischer” value (25° C./60% RH, 6 Month) was 7.7% and the XRPD (25° C./60% RH, 6 Month) was “Amorphous”. The Appearance (40° C./75% RH, 3 Month) was “Brown Solid”, the “Assay by UPLC (Wt % of an anhydrous basis, sum of Atropisomers)” value (40° C./75% RH, 3 Month) was 100.2% and the “PSD D10” value (40° C./75% RH, 3 Month) was “D10: 0.60 μm”. For the same compound, the “PSD D50” value (40° C./75% RH, 3 Month) was “D50: 1.2 μm”, the “PSD D90” value (40° C./75% RH, 3 Month) was “D90: 2.1 μm” and the “Total Impurities by HPLC (Area %)” value (40° C./75% RH, 3 Month) was 1.3%. For the same compound, the “Water Content by Karl Fischer” value (40° C./75% RH, 3 Month) was 7.5%, the Appearance (40° C./75% RH, 6 Month) was “Brown Solid” and the “Assay by UPLC (Wt % of an anhydrous basis, sum of Atropisomers)” value (40° C./75% RH, 6 Month) was 97.9%**. The “PSD D10” value (40° C./75% RH, 6 Month) was “D10: 0.61 μm*”, the “PSD D50” value (40° C./75% RH, 6 Month) was “D50: 1.2 μm*” and the “PSD D90” value (40° C./75% RH, 6 Month) was “D90: 2.1 μm*”. For the same compound, the “Total Impurities by HPLC (Area %)” value (40° C./75% RH, 6 Month) was 1.6%**, the “Water Content by Karl Fischer” value (40° C./75% RH, 6 Month) was 8.5% and the XRPD (40° C./75% RH, 6 Month) was “Amorphous”. The Appearance (T = 0) was “Brown Solid”, the “Assay by UPLC (Wt % of an anhydrous basis, sum of Atropisomers)” value (T = 0) was 97.5% and the “PSD D10” value (T = 0) was “D10: 0.61 μm”. For the same compound, the “PSD D50” value (T = 0) was “D50: 1.2 μm”, the “PSD D90” value (T = 0) was “D90: 2.0 μm” and the “Total Impurities by HPLC (Area %)” value (T = 0) was 0.67%. For the same compound, the “Water Content by Karl Fischer” value (T = 0) was 6.9%, the XRPD (T = 0) was “Amorphous” and the Appearance (−20° C., 3 Month) was “Brown Solid”. For the same compound, the “Assay by UPLC (Wt % of an anhydrous basis, sum of Atropisomers)” value (−20° C., 3 Month) was 101.4%, the “PSD D10” value (−20° C., 3 Month) was “D10: 0.59 μm” and the “PSD D50” value (−20° C., 3 Month) was “D50: 1.1 μm”. The “PSD D90” value (−20° C., 3 Month) was “D90: 2.0 μm”, the “Total Impurities by HPLC (Area %)” value (−20° C., 3 Month) was 0.63% and the “Water Content by Karl Fischer” value (−20° C., 3 Month) was 7.0%. The Appearance (−20° C., 6 Month) was “Brown Solid”, the “Assay by UPLC (Wt % of an anhydrous basis, sum of Atropisomers)” value (−20° C., 6 Month) was 100.7% and the “PSD D10” value (−20° C., 6 Month) was “D10: 0.59 μm*”. The “PSD D50” value (−20° C., 6 Month) was “D50: 1.1 μm*”, the “PSD D90” value (−20° C., 6 Month) was “D90: 1.9 μm*” and the “Total Impurities by HPLC (Area %)” value (−20° C., 6 Month) was 0.63%. For the same compound, the “Water Content by Karl Fischer” value (−20° C., 6 Month) was 7.4% and the XRPD (−20° C., 6 Month) was “Amorphous”.

From patent publication US20230391809A1, “HYDROPHOBIC COMPOSITIONS INCLUDING A HYDROPHILIC ACTIVE INGREDIENT AND METHODS RELATING THERETO” (BioMimetix JV, LLC, priority 2022, published 2023)
